Test results reported in ChEMBL document CHEMBL5465560, “Selectivity Literature for EUbOPEN Chemogenomic Library” (2024).

Tests used:
[1] = molecular target: Serine/threonine-protein kinase NIM1 (Homo sapiens, UniProt Q8IY84); experiment: Selectivity interaction (KinomeScan (DiscoverX)) EUB0000092b NIM1K; conditions: at 10 µM
[2] = molecular target: T1, Serine/threonine-protein kinase RIO1 (Homo sapiens) (UniProt Q9BRS2); experiment: Selectivity interaction (KinomeScan (DiscoverX)) EUB0000655a RIOK1; conditions: at 10 µM
T1 sequence (whole entry): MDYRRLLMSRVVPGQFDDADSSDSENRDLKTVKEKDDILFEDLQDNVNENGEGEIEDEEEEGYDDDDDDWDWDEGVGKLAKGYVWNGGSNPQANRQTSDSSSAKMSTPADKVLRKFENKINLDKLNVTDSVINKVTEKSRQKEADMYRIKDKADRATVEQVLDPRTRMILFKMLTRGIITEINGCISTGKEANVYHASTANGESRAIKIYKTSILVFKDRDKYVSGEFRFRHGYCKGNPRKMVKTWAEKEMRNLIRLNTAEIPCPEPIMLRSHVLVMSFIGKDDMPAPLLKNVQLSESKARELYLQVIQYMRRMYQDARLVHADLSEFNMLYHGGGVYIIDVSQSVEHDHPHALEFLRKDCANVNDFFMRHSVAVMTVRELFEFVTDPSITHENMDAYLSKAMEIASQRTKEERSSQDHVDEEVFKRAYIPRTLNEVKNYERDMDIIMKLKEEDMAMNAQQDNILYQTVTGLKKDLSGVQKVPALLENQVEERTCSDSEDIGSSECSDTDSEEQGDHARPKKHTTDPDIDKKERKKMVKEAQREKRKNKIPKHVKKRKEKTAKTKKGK

[3] = molecular target: T2, Serine/threonine-protein kinase Chk1 (Homo sapiens) (UniProt O14757); experiment: Selectivity interaction (KinomeScan (DiscoverX)) EUB0001079a CHEK1; conditions: at 1 µM
T2 sequence (whole entry): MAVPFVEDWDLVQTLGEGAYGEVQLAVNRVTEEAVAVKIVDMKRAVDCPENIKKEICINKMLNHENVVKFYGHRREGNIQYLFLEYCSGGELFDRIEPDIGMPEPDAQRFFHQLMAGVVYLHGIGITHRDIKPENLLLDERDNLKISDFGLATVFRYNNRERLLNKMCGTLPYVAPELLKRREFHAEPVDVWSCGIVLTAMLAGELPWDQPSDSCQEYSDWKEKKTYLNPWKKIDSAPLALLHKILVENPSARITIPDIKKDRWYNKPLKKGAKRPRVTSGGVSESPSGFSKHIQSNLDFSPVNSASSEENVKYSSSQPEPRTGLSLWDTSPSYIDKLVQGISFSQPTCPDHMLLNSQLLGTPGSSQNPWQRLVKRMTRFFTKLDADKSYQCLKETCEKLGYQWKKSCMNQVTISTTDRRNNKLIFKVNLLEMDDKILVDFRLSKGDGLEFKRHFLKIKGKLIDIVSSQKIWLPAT

[4] = molecular target: T3, Serine/threonine-protein kinase LATS2 (Homo sapiens) (UniProt Q9NRM7); experiment: Selectivity interaction (LanthaScreen Eu Kinase Binding Assay) EUB0001632a LATS2; conditions: at 10 µM
T3 sequence (whole entry): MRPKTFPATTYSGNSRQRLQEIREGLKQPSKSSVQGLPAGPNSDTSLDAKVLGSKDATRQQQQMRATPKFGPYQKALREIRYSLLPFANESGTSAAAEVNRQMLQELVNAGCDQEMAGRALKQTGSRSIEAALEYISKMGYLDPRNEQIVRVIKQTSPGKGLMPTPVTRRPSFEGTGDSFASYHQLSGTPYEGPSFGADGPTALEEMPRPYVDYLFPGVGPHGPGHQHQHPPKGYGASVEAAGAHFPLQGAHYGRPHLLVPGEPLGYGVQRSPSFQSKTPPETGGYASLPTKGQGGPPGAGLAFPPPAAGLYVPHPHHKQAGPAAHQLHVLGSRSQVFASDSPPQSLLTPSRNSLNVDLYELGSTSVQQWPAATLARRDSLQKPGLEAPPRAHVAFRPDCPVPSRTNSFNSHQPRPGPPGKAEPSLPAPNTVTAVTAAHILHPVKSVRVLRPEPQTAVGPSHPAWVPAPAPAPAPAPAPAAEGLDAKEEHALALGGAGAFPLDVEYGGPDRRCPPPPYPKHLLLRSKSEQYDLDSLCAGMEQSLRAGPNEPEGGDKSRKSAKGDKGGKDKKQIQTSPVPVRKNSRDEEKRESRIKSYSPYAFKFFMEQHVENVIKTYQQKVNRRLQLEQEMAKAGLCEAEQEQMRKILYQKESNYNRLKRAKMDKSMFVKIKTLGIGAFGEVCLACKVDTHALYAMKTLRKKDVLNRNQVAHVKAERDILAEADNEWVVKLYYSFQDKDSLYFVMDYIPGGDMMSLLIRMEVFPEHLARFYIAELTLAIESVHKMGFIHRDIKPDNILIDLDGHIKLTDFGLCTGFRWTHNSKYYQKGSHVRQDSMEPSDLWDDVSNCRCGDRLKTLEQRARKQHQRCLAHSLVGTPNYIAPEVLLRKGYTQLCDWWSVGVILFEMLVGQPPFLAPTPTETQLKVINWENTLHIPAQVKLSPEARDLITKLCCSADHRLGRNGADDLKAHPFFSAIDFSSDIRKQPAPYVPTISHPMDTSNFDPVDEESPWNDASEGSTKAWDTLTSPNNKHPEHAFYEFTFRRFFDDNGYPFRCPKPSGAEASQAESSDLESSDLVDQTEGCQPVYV

[5] = molecular target: 1-phosphatidylinositol 3-phosphate 5-kinase (Homo sapiens) (UniProt Q9Y2I7); experiment: Selectivity interaction (ActivX KiNativ screen (kinase selectivity in THP-1 cell lysates)) EUB0000639a PIKFYVE; assay type: subcellular; conditions: lysate
[6] = molecular target: Serine/threonine-protein kinase PAK 2 (Homo sapiens) (UniProt Q13177); experiment: Selectivity interaction (KinomeScan (DiscoverX)) EUB0000045b PAK2
[7] = molecular target: T4, Serine/threonine-protein kinase STK11 (Homo sapiens) (UniProt Q15831); experiment: Selectivity interaction (Kinase panel (literature)) EUB0001199aCl STK11; conditions: at 1 µM
T4 sequence (whole entry): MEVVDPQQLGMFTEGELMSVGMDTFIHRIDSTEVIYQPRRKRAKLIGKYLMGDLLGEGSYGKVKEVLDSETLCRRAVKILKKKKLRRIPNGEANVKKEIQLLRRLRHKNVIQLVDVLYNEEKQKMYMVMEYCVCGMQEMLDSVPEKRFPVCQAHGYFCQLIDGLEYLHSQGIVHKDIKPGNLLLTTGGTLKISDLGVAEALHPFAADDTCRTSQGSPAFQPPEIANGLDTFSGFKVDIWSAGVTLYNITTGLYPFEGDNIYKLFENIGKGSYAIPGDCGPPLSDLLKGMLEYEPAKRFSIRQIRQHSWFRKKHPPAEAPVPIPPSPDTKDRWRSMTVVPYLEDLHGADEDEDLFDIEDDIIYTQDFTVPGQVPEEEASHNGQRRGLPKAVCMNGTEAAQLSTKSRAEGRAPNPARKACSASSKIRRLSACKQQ

Sequence of 1-phosphatidylinositol 3-phosphate 5-kinase (Homo sapiens) (Q9Y2I7 whole entry): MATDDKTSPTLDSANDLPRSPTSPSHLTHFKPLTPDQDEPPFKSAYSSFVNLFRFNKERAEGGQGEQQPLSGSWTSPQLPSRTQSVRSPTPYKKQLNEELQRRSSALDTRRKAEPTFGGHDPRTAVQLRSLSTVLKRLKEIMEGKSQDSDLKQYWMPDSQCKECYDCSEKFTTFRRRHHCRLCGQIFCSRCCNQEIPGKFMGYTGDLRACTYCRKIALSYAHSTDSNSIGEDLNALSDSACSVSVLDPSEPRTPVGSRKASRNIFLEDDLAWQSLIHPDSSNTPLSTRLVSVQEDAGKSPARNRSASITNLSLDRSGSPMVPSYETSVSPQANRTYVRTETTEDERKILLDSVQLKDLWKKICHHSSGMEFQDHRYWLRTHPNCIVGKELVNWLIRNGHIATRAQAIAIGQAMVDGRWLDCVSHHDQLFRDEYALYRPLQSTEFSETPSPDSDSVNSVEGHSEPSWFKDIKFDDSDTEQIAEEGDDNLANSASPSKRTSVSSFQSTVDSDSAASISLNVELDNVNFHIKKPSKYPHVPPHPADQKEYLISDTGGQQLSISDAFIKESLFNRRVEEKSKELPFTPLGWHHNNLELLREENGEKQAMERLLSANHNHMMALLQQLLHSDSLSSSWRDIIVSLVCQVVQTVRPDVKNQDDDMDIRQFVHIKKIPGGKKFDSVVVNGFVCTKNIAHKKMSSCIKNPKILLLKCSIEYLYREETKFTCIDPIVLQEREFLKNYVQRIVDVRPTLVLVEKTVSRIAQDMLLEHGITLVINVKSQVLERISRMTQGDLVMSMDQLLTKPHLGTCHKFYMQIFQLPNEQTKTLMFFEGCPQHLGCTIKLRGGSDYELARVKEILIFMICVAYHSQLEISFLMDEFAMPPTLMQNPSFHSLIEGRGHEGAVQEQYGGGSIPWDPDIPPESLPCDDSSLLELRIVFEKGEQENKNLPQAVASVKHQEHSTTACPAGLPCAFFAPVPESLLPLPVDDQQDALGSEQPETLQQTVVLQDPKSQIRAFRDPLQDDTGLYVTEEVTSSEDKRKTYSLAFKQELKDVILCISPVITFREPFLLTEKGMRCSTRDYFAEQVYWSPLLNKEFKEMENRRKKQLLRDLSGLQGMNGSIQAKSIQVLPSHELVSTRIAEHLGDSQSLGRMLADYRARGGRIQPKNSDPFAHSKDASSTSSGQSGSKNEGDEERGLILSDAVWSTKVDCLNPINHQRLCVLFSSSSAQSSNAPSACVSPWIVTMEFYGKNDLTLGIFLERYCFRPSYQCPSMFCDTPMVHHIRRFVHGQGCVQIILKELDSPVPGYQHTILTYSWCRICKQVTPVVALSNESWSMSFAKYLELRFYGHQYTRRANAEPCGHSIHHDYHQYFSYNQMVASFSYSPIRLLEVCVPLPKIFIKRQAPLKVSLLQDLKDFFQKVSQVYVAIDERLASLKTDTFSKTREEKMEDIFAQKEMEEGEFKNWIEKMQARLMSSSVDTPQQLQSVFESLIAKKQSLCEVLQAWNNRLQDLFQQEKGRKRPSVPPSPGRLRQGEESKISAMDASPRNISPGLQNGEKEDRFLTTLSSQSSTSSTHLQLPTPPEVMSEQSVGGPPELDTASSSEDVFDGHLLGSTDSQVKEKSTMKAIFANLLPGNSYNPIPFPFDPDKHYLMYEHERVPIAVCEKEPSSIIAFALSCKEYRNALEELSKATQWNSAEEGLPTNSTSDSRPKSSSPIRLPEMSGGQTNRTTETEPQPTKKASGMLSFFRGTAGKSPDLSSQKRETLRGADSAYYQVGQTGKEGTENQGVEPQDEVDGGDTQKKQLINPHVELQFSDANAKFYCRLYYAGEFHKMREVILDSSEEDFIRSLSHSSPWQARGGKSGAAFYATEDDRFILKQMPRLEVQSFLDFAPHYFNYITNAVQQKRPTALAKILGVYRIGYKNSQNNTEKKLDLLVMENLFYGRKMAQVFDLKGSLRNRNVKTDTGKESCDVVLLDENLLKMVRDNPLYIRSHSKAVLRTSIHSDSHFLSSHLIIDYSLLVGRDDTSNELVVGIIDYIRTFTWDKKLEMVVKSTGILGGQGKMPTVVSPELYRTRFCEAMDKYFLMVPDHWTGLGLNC
Sequence of Serine/threonine-protein kinase PAK 2 (Homo sapiens) (Q13177 whole entry): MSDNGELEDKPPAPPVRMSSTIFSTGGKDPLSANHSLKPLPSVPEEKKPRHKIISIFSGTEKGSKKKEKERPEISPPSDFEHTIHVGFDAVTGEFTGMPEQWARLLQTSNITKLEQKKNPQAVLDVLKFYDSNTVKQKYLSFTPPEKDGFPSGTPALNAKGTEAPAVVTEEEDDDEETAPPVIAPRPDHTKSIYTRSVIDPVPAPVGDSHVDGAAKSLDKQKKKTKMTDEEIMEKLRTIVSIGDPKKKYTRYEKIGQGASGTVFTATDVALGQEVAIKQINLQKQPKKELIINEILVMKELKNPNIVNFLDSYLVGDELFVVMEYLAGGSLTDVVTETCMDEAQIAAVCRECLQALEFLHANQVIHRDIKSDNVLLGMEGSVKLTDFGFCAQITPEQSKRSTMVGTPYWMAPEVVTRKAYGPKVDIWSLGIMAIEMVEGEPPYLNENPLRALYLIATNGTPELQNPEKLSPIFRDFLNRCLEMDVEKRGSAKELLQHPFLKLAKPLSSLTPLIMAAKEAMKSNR
Sequence of Serine/threonine-protein kinase NIM1 (Q8IY84 whole entry): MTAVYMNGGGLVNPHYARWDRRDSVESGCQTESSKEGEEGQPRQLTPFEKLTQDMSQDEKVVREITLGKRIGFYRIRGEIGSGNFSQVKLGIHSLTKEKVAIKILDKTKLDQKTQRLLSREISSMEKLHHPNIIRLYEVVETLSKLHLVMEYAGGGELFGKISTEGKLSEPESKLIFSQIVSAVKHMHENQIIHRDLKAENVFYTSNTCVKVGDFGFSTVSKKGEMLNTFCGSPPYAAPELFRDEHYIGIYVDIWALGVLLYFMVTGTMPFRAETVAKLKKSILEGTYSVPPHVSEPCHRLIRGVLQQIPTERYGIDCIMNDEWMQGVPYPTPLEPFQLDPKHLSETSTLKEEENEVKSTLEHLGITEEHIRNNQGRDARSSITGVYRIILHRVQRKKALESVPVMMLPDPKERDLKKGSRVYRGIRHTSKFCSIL

Q: With CCC(=O)N1CCN(c2ccc(-n3c(=O)ccc4cnc5ccc(-c6cnc7ccccc7c6)cc5c43)cc2C(F)(F)F)CC1 as the molecule, how does the % of control [1] read?
A: 84%

Q: Which % of control [2] does the source give for CN(C)CCOc1ccc(-c2nc(-c3ccncc3)c(-c3ccc4c(c3)CC/C4=N\O)[nH]2)cc1 here?
A: 97%

Q: Nc1cnc(N2CCc3cc(S(=O)(=O)Nc4c(F)cc(Cl)cc4F)cc(N4CCCC4=O)c32)nc1 [TP-020n] was tested. Which % of control [3] did it give?
A: 95%

Q: Cn1cc(-n2cnc3c(NCc4nc5cc(Cl)c(Cl)cc5[nH]4)nc(N4CCOCC4)nc32)cn1 was tested. Which % of inhibition [4] did it give?
A: 1.75%

Q: Which results are given for CC[C@@H]1[C@H](F)C(=O)N[C@@H]1COc1nccc2cc(C(N)=O)c(OC)cc12 [ZIMLOVISERTIB]?
A: % of inhibition ([5]; at 0.01 µM): 11%; % of inhibition ([5]; at 0.04 µM): 8.8%; % of inhibition ([5]; at 0.2 µM): -0.1%; % of inhibition ([5]; at 1 µM): 21.3%; % of inhibition ([5]; at 5 µM): 29.2%

Q: For C=CC(=O)Nc1cc(-n2c(=O)ccc3cnc4ccc(-c5ccc(NS(C)(=O)=O)cc5)cc4c32)ccc1C, which % of control ([6]; at 1 µM) is on record?
A: 78%

Q: And the % of control ([6]; at 10 µM)?
A: 92%

Q: Which % of inhibition [7] does the source give for CN1Cc2nccc(-c3cn(C)nc3-c3ccc(F)cc3)c2C1=O here?
A: 3%
